Laboratory results published in US20250163104A1, “MACROCYCLIC IMMUNOMODULATORS” (priority 2021, published 2025).
Where a SMILES comes first, the peptide text is derived from it. Bridges are numbered along the chain shown (N, C = ends). [ ]: non-standard residue; d: D form. The star is where a group is joined. Phe(4-COOH) = N[C@@H](Cc1ccc(C(=O)O)cc1)C(=O)O; Bip = N[C@@H](Cc1ccc(-c2ccccc2)cc1)C(=O)O; Phe(3-Me) = Cc1cccc(C[C@H](N)C(=O)O)c1; aIle = CC[C@@H](C)[C@H](N)C(=O)O; hArg = N=C(N)NCCCC[C@H](N)C(=O)O; 4Pal = N[C@@H](Cc1ccncc1)C(=O)O; Cha = N[C@@H](CC1CCCCC1)C(=O)O; Cit = NC(=O)NCCC[C@H](N)C(=O)O; NMeN = CN[C@@H](CC(N)=O)C(=O)O; dCha = N[C@H](CC1CCCCC1)C(=O)O; Carboxymethyl = O=C(O)C*; Nle = CCCC[C@H](N)C(=O)O; Orn = NCCC[C@H](N)C(=O)O; Pra = C#CC[C@H](N)C(=O)O; Dab = NCC[C@H](N)C(=O)O; Dap = NC[C@H](N)C(=O)O; Propargyl = C#CC*

Biological target: T1, human PD-1 / PD-L1-Ig binding on Jurkat cell line over-expressing human PD-1 (Jurkat-PD-1) (Homo sapiens, UniProt Q15116)
T1 construct: expressed in transfected cells; host or cells: Jurkat
T1 sequence (Q15116 25-288): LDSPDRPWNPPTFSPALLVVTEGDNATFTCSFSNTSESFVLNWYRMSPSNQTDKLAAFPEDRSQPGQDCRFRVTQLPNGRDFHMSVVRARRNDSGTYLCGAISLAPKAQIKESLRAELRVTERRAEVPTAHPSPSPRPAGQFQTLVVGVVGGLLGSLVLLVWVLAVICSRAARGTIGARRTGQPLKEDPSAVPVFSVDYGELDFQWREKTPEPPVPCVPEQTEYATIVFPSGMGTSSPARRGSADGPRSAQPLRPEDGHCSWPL
Experiment: Jurkat-PD-1 Cell Binding High-Content Screening Assay (CBA)
Assay type: cell-based
Settings: Jurkat-PD-1 cells, PE-labeled PD-L1-Ig 20 nM final; read-out: Jurkat HPD1_PDL1 IC50
Summary of the method: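 Jurkat-hPD-1 cells in DMEM with 10% fetal calf serum receive test compound and are held at 37° C for 2 h. PE-labeled PD-L1-Ig is added at 20 nM final and left for 1 hour. Cells are then fixed and Hoechst-stained, and binding is measured by imaging.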

IC50 [nM]	SMILES
15.9	CC(C)[C@@H]1NC(=O)[C@H](Cc2c[nH]c3ccccc23)NC(=O)[C@H](CC(=O)O)NC(=O)[C@H](Cc2ccc(O)cc2)NC(=O)[C@H](CC(N)=O)NC(=O)CSC[C@@H](C(=O)N[C@@H](C)C(N)=O)NC(=O)[C@H]([C@@H](C)O)NC(=O)[C@H](C(C)C)NC(=O)[C@H](CC2CCCCC2)NC(=O)[C@H](CCN)NC(=O)[C@@H](CC2CCCCC2)NC(=O)[C@H](CCCN)NC(=O)[C@H](CCC(=O)O)NC(=O)[C@H](Cc2ccc(-c3ccccc3)cc2)NC1=O [Compound 1442] ({CH2CO}-NYDWV[Bip]E[Orn][dCha][Dab][Cha]VTCA-NH2; thioether N-14)
12.4	CC(=O)NCCC[C@@H]1NC(=O)[C@H](C(C)C)NC(=O)[C@H](CC2CCCCC2)NC(=O)[C@H](CCN)NC(=O)[C@@H](CC(C)C)NC(=O)[C@H](CCCN)NC(=O)[C@H](Cc2ccc(OCC(=O)O)cc2)NC(=O)[C@H](Cc2ccc(-c3ccccc3)cc2)NC(=O)[C@H](Cc2ccc(O)cc2)NC(=O)[C@H](Cc2cccc(C)c2)NC(=O)[C@H](CC(=O)O)NC(=O)[C@H](Cc2ccc(OCC(=O)O)cc2)NC(=O)[C@H](CCCNC(=N)N)NC(=O)CSC[C@@H](C(N)=O)NC1=O [Compound 2054] ({CH2CO}-RY(Carboxymethyl)D[Phe(3-Me)]Y[Bip]Y(Carboxymethyl)[Orn][dL][Dab][Cha]V[Orn](Ac)C-NH2; thioether N-14)
11.5	CCCC[C@H]1NC(=O)[C@H](CCCN)NC(=O)[C@H]([C@@H](C)CC)NC(=O)[C@H](Cc2ccc(-c3ccccc3)cc2)NC(=O)[C@H](C(C)C)NC(=O)[C@H](Cc2c[nH]c3ccccc23)NC(=O)[C@H](CC(=O)O)NC(=O)[C@H](Cc2ccc(OCC(=O)O)cc2)NC(=O)[C@H](Cc2ccc(OCC(=O)O)cc2)NC(=O)CSC[C@@H](C(=O)N[C@@H](C)C(N)=O)NC(=O)[C@H]([C@@H](C)O)NC(=O)[C@H](C(C)C)NC(=O)[C@H](CC2CCCCC2)NC(=O)[C@H](CCN)NC1=O [Compound 1706]
26.9	CC[C@@H](C)[C@@H]1NC(=O)[C@H](Cc2ccc(-c3ccccc3)cc2)NC(=O)[C@H](C(C)C)NC(=O)[C@H](Cc2c[nH]c3ccccc23)NC(=O)[C@H](CC(=O)O)NC(=O)[C@H](Cc2ccc(C(=O)O)cc2)NC(=O)[C@H](Cc2ccncc2)NC(=O)CSC[C@@H](C(=O)N[C@@H](C)C(N)=O)NC(=O)[C@H]([C@@H](C)O)NC(=O)[C@H](C(C)C)NC(=O)[C@H](CC2CCCCC2)NC(=O)[C@H](CCN)NC(=O)[C@@H](CC2CCCCC2)NC(=O)[C@H](CCCN)NC1=O [Compound 1624] ({CH2CO}-[4Pal][Phe(4-COOH)]DWV[Bip][aIle][Orn][dCha][Dab][Cha]VTCA-NH2; thioether N-14)
17.5	CC(C)C[C@H]1NC(=O)[C@H](CCCN)NC(=O)[C@H](CCC(=O)O)NC(=O)[C@H](Cc2ccc(-c3ccccc3)cc2)NC(=O)[C@H](C(C)C)NC(=O)[C@H](Cc2ccc(F)c(F)c2)NC(=O)[C@H](CC(=O)O)NC(=O)[C@H](Cc2ccc(OCC(=O)O)cc2)NC(=O)[C@H](CN)NC(=O)CSC[C@@H](C(=O)N[C@@H](C)C(N)=O)NC(=O)[C@H]([C@@H](C)O)NC(=O)[C@H](C(C)C)NC(=O)[C@H](CC2CCCCC2)NC(=O)[C@H](CCN)NC1=O [Compound 2148]
2.4	C#CC[C@H](NC(=O)[C@H](CCN)NC(=O)[C@@H]1CSCC(=O)N[C@@H](CC(C)C)C(=O)N[C@@H](Cc2ccc(C(=O)O)cc2)C(=O)N[C@@H](CC(=O)O)C(=O)N[C@@H](Cc2cccc(C)c2)C(=O)N[C@@H](Cc2ccc(C(=O)O)cc2)C(=O)N[C@@H](Cc2ccc(-c3ccccc3)cc2)C(=O)N[C@@H](Cc2ccc(C(=O)O)cc2)C(=O)N[C@@H](CCCN)C(=O)N[C@H](CC(C)C)C(=O)N[C@@H](CCN)C(=O)N[C@@H](CC2CCCCC2)C(=O)N[C@@H](C(C)C)C(=O)N[C@@H](CCC(=O)O)C(=O)N1)C(=O)O [Compound 2706] ({CH2CO}-L[Phe(4-COOH)]D[Phe(3-Me)][Phe(4-COOH)][Bip][Phe(4-COOH)][Orn][dL][Dab][Cha]VEC[Dab][Pra]-OH; thioether N-14)
23.9	CC(C)C[C@H]1NC(=O)[C@H](CCCN)NC(=O)[C@H](C(C)C)NC(=O)[C@H](Cc2ccc(-c3ccccc3)cc2)NC(=O)[C@H](C(C)C)NC(=O)[C@H](Cc2c[nH]c3ccccc23)NC(=O)[C@H](CC(=O)O)NC(=O)[C@H](Cc2ccc(OCC(=O)O)cc2)NC(=O)[C@H](CCCCNC(=N)N)NC(=O)CSC[C@@H](C(=O)N(C)[C@@H](CC(N)=O)C(N)=O)NC(=O)[C@H](CO)NC(=O)[C@H](C(C)C)NC(=O)[C@H](CC2CCCCC2)NC(=O)[C@H](CCN)NC1=O [Compound 2567] ({CH2CO}-[hArg]Y(Carboxymethyl)DWV[Bip]V[Orn][dL][Dab][Cha]VSC[NMeN]-NH2; thioether N-14)
34.5	Cc1cccc(C[C@@H]2NC(=O)[C@H](CC(=O)O)NC(=O)[C@H](Cc3ccc(OCC(=O)O)cc3)NC(=O)[C@H](Cc3ccc(OCC(=O)O)cc3)NC(=O)CSC[C@@H](C(N)=O)NC(=O)[C@H](CO)NC(=O)[C@H](C(C)C)NC(=O)[C@H](CC(C)C)NC(=O)[C@H](CCN)NC(=O)[C@@H](CC(C)C)NC(=O)[C@H](CCCN)NC(=O)[C@H](C(C)C)NC(=O)[C@H](Cc3ccc(-c4ccccc4)cc3)NC(=O)[C@H](CC(C)C)NC2=O)c1 [Compound 1649] ({CH2CO}-Y(Carboxymethyl)Y(Carboxymethyl)D[Phe(3-Me)]L[Bip]V[Orn][dL][Dab]LVSC-NH2; thioether N-14)
13.2	Cc1cccc(C[C@@H]2NC(=O)[C@H](CC(=O)O)NC(=O)[C@H](Cc3ccc(OCC(=O)O)cc3)NC(=O)[C@H](CN)NC(=O)CSC[C@@H](C(=O)N[C@@H](C)C(N)=O)NC(=O)[C@H](Cc3cnc[nH]3)NC(=O)[C@H](C(C)C)NC(=O)[C@H](CC3CCCCC3)NC(=O)[C@H](CCN)NC(=O)[C@@H](CC(C)C)NC(=O)[C@H](CCCN)NC(=O)[C@H](C(C)C)NC(=O)[C@H](Cc3ccc(-c4ccccc4)cc3)NC(=O)[C@H](C(C)C)NC2=O)c1 [Compound 1757] ({CH2CO}-[Dap]Y(Carboxymethyl)D[Phe(3-Me)]V[Bip]V[Orn][dL][Dab][Cha]VHCA-NH2; thioether N-14)
51	CC[C@H](C)[C@@H]1NC(=O)[C@H](Cc2ccc(-c3ccccc3)cc2)NC(=O)[C@H](C(C)C)NC(=O)[C@H](Cc2c[nH]c3ccccc23)NC(=O)[C@H](CC(=O)O)NC(=O)[C@H](Cc2ccc(O)cc2)NC(=O)[C@H](Cc2ccccc2)NC(=O)CSC[C@@H](C(=O)N[C@@H](C)C(N)=O)NC(=O)[C@H]([C@@H](C)O)NC(=O)[C@H](C(C)C)NC(=O)[C@H](CC2CCCCC2)NC(=O)[C@H](CCCNC(=N)N)NC(=O)[C@@H](CC(C)C)NC(=O)[C@H](CCCN)NC1=O [Compound 1148] ({CH2CO}-FYDWV[Bip]I[Orn][dL]R[Cha]VTCA-NH2; thioether N-14)
2.3	C#CCOc1ccc(C[C@@H]2NC(=O)[C@H](Cc3cccc(C)c3)NC(=O)[C@H](CC(=O)O)NC(=O)[C@H](Cc3ccc(OCC(=O)O)cc3)NC(=O)[C@H](CCCNC(=N)N)NC(=O)CSC[C@@H](C(=O)N[C@@H](CCN)C(N)=O)NC(=O)[C@H](CCC(=O)O)NC(=O)[C@H](C(C)C)NC(=O)[C@H](CC3CCCCC3)NC(=O)[C@H](CCN)NC(=O)[C@@H](CC(C)C)NC(=O)[C@H](CCCN)NC(=O)[C@H](Cc3ccc(OCC(=O)O)cc3)NC(=O)[C@H](Cc3ccc(-c4ccccc4)cc3)NC2=O)cc1 [Compound 1818] ({CH2CO}-RY(Carboxymethyl)D[Phe(3-Me)]Y(Propargyl)[Bip]Y(Carboxymethyl)[Orn][dL][Dab][Cha]VEC[Dab]-NH2; thioether N-14)
13.7	CC(C)C[C@H]1NC(=O)[C@H](CCCN)NC(=O)[C@H](CCCN)NC(=O)[C@H](Cc2ccc(-c3ccccc3)cc2)NC(=O)[C@H](C(C)C)NC(=O)[C@H](Cc2c[nH]c3ccccc23)NC(=O)[C@H](CC(=O)O)NC(=O)[C@H](Cc2ccc(O)cc2)NC(=O)[C@H](CC(N)=O)NC(=O)CSC[C@@H](C(=O)N[C@@H](C)C(N)=O)NC(=O)[C@H]([C@@H](C)O)NC(=O)[C@H](C(C)C)NC(=O)[C@H](CC2CCCCC2)NC(=O)[C@H](CCN)NC1=O [Compound 1378] ({CH2CO}-NYDWV[Bip][Orn][Orn][dL][Dab][Cha]VTCA-NH2; thioether N-14)
79.6	CC(C)C[C@@H]1NC(=O)[C@H](CCN)NC(=O)[C@@H](CC(C)C)NC(=O)[C@H](CCCN)NC(=O)[C@H](CCCNC(N)=O)NC(=O)[C@H](Cc2ccc(-c3ccccc3)cc2)NC(=O)[C@H](C(C)C)NC(=O)[C@H](Cc2c[nH]c3ccccc23)NC(=O)[C@H](CC(=O)O)NC(=O)[C@H](Cc2ccc(O)cc2)NC(=O)[C@H](CC(N)=O)NC(=O)CSC[C@@H](C(=O)NCC(N)=O)NC(=O)[C@H]([C@@H](C)O)NC(=O)[C@H](C(C)C)NC1=O [Compound 1115] ({CH2CO}-NYDWV[Bip][Cit][Orn][dL][Dab]LVTCG-NH2; thioether N-14)
37.4	CCCC[C@@H]1NC(=O)[C@H](CCN)NC(=O)[C@@H](CC(C)C)NC(=O)[C@H](CCCN)NC(=O)[C@H](CCCNC(N)=O)NC(=O)[C@H](Cc2ccc(-c3ccccc3)cc2)NC(=O)[C@H](CC(C)C)NC(=O)[C@H](Cc2cccc(C)c2)NC(=O)[C@H](CC(=O)O)NC(=O)[C@H](Cc2ccc(O)cc2)NC(=O)[C@H](CC(N)=O)NC(=O)CSC[C@@H](C(=O)N[C@@H](C)C(N)=O)NC(=O)[C@H]([C@@H](C)O)NC(=O)[C@H](C(C)C)NC1=O [Compound 1307] ({CH2CO}-NYD[Phe(3-Me)]L[Bip][Cit][Orn][dL][Dab][Nle]VTCA-NH2; thioether N-14)
3.4	CCCC[C@@H]1NC(=O)[C@H](CCN)NC(=O)[C@@H](CC(C)C)NC(=O)[C@H](CCCN)NC(=O)[C@H](CCCNC(N)=O)NC(=O)[C@H](Cc2ccc(-c3ccccc3)cc2)NC(=O)[C@H](C(C)C)NC(=O)[C@H](Cc2cccc(C)c2)NC(=O)[C@H](CC(=O)O)NC(=O)[C@H](Cc2ccc(C(=O)O)cc2)NC(=O)[C@H](CN)NC(=O)CSC[C@@H](C(=O)N[C@@H](C)C(N)=O)NC(=O)[C@H]([C@@H](C)O)NC(=O)[C@H](C(C)C)NC1=O [Compound 1201] ({CH2CO}-[Dap][Phe(4-COOH)]D[Phe(3-Me)]V[Bip][Cit][Orn][dL][Dab][Nle]VTCA-NH2; thioether N-14)
